As usually defined, the IC50 is the concentration that gives 50% inhibition. Low values mean higher potency, high ones lower potency. A word on the inhibition: it is the change of the read-out against control, counted positive when it falls.

For 14 molecules, IC50 and inhibition results are on record in ChEMBL document CHEMBL5518234, “Structure-Guided Discovery of Potent and Selective CLK2 Inhibitors for the Treatment of Knee Osteoarthritis” (J Med Chem, 2024).

The target of test [1] is Dual specificity protein kinase CLK3 (Homo sapiens, UniProt P49761).
Description: Inhibition of CLK3 (unknown origin) incubated for 10 mins in presence of ATP
The target in test [2] is Dual specificity protein kinase CLK2 (Homo sapiens, UniProt P49760).
Description: Inhibition of CLK2 (unknown origin) incubated for 10 mins in presence of ATP
Test [3] has as its target T1, Dual specificity tyrosine-phosphorylation-regulated kinase 1A (Homo sapiens, UniProt Q13627).
Description: Inhibition of DYRK1A (unknown origin) incubated for 10 mins in presence of ATP
For test [4], the target named is T2, Dual specificity protein kinase CLK1 (Homo sapiens, UniProt P49759).
Target sequence in this assay (P49759 whole entry): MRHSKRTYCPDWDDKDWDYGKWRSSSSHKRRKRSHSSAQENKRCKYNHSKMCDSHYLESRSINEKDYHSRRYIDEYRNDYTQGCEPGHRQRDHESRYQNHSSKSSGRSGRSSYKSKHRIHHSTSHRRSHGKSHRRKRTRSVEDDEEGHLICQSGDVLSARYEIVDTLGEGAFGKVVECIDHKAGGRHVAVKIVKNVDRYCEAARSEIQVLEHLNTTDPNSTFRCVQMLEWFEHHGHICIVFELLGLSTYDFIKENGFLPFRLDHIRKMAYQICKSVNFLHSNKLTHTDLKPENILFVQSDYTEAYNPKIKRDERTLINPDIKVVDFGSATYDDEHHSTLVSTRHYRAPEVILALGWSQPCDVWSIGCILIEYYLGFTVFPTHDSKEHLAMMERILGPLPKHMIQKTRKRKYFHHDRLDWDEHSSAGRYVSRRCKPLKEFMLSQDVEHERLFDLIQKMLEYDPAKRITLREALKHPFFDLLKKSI
Description: Inhibition of CLK1 (unknown origin) incubated for 10 mins in presence of ATP
Test [5] addresses T3, Dual specificity protein kinase CLK4 (Homo sapiens, UniProt Q9HAZ1).
Description: Inhibition of CLK4 (unknown origin) incubated for 10 mins in presence of ATP
The target of test [6] is T4, Serine/arginine-rich splicing factor 6 (Rattus norvegicus) (UniProt G3V6S8).
T4 sequence (whole entry): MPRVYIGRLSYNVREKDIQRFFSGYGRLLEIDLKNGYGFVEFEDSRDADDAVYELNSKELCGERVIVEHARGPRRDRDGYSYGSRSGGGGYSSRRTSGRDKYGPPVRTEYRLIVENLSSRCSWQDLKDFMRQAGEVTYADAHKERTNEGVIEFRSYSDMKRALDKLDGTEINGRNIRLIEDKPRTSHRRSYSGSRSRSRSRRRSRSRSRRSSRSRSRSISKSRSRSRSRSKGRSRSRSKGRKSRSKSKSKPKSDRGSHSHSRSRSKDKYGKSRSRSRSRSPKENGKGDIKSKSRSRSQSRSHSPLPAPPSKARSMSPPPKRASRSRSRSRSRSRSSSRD
To be noted: Chondrocyte, dose 10-100 nM, time 1.0 hrs.

Test [7] addresses T2, Dual specificity protein kinase CLK1. To be noted: dose 100.0 nM.
Target sequence in this assay (P49759 whole entry, looked up): as the sequence (P49759 whole entry) above
Description: Inhibition of CLK1 (unknown origin) at 100 nM relative to control
The target of test [8] is T3, Dual specificity protein kinase CLK4. To be noted: dose 100.0 nM.
Description: Inhibition of CLK4 (unknown origin) at 100 nM relative to control
In test [9] the target is T1, Dual specificity tyrosine-phosphorylation-regulated kinase 1A. To be noted: dose 100.0 nM.
Description: Inhibition of DYRKIA (unknown origin) at 100 nM relative to control
The target of test [10] is Dual specificity tyrosine-phosphorylation-regulated kinase 1B (Homo sapiens) (UniProt Q9Y463). To be noted: dose 100.0 nM.
Description: Inhibition of DYRK1B (unknown origin) at 100 nM relative to control
The target of test [11] is Homeodomain-interacting protein kinase 2 (Homo sapiens) (UniProt Q9H2X6). To be noted: dose 100.0 nM.
Description: Inhibition of HIPK2 (unknown origin) at 100 nM relative to control
The target of test [12] is Serine/threonine-protein kinase pim-3 (Homo sapiens) (UniProt Q86V86). To be noted: dose 100.0 nM.
Description: Inhibition of PIM3 (unknown origin) at 100 nM relative to control
For test [13], the target named is TRAF2 and NCK-interacting protein kinase (Homo sapiens) (UniProt Q9UKE5). To be noted: dose 100.0 nM.
Description: Inhibition of TNIK (unknown origin) at 100 nM relative to control
Test [14] concerns the target Receptor-type tyrosine-protein kinase FLT3 (Homo sapiens) (UniProt P36888). To be noted: dose 100.0 nM.
Description: Inhibition of FLT3 (unknown origin) at 100 nM relative to control

Sequence of Dual specificity protein kinase CLK2 (P49760 whole entry): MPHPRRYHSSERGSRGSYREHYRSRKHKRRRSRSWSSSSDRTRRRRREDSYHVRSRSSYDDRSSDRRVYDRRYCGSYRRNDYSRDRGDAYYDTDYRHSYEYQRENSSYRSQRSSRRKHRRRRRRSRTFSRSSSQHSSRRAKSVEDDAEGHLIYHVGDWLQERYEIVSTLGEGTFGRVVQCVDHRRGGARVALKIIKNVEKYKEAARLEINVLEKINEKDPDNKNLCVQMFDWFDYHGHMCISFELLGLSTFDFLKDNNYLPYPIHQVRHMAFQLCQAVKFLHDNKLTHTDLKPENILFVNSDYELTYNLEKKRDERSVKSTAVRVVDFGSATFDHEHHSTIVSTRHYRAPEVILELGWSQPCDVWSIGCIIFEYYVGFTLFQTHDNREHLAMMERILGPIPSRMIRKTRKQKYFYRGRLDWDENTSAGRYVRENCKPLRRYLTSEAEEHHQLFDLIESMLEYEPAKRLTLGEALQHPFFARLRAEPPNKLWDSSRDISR
Sequence of Dual specificity protein kinase CLK3 (P49761 whole entry): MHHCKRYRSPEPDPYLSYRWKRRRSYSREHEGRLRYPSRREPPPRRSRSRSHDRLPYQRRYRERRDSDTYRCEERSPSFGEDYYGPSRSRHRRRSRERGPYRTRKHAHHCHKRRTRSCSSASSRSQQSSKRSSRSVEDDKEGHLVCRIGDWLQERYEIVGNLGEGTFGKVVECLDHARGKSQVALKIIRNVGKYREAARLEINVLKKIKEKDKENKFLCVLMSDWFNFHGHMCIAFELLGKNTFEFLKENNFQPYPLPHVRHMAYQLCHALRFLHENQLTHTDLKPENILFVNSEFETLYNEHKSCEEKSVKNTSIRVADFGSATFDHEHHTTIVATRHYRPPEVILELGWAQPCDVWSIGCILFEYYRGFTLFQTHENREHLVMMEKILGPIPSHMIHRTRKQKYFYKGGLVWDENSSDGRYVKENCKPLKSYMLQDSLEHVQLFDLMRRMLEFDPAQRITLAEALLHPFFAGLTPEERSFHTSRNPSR
Sequence of Homeodomain-interacting protein kinase 2 (Homo sapiens) (Q9H2X6 whole entry, looked up): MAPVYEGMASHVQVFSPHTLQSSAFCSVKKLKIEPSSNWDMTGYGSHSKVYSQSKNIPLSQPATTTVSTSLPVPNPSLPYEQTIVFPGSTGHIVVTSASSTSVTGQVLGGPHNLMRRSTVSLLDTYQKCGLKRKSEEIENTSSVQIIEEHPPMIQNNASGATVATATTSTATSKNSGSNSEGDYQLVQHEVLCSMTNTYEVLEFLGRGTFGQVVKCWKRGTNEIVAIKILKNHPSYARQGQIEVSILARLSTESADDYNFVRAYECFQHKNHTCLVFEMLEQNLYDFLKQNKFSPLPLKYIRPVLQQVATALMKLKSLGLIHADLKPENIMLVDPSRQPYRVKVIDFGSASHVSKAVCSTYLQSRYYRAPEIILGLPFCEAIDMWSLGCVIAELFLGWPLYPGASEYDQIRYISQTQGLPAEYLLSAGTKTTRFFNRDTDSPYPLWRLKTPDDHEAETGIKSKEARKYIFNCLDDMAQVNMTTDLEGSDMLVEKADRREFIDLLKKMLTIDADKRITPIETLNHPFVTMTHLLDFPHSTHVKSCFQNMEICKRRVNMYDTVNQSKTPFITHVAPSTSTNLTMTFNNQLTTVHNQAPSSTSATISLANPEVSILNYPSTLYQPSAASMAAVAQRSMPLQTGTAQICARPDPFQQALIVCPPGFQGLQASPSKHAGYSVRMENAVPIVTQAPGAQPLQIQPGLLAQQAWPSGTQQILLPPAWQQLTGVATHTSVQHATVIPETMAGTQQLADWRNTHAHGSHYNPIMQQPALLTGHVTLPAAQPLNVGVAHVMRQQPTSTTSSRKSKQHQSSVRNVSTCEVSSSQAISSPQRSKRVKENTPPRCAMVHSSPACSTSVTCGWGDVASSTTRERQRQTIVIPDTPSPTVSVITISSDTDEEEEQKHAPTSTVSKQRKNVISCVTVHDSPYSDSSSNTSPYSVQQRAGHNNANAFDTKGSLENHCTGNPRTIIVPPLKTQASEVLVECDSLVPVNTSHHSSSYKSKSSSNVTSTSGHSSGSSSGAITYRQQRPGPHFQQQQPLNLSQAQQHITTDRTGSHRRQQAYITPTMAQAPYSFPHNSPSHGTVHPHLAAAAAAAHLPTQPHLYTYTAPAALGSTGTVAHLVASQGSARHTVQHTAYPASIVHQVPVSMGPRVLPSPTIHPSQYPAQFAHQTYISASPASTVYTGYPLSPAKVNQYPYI
Sequence of Receptor-type tyrosine-protein kinase FLT3 (Homo sapiens) (P36888 whole entry): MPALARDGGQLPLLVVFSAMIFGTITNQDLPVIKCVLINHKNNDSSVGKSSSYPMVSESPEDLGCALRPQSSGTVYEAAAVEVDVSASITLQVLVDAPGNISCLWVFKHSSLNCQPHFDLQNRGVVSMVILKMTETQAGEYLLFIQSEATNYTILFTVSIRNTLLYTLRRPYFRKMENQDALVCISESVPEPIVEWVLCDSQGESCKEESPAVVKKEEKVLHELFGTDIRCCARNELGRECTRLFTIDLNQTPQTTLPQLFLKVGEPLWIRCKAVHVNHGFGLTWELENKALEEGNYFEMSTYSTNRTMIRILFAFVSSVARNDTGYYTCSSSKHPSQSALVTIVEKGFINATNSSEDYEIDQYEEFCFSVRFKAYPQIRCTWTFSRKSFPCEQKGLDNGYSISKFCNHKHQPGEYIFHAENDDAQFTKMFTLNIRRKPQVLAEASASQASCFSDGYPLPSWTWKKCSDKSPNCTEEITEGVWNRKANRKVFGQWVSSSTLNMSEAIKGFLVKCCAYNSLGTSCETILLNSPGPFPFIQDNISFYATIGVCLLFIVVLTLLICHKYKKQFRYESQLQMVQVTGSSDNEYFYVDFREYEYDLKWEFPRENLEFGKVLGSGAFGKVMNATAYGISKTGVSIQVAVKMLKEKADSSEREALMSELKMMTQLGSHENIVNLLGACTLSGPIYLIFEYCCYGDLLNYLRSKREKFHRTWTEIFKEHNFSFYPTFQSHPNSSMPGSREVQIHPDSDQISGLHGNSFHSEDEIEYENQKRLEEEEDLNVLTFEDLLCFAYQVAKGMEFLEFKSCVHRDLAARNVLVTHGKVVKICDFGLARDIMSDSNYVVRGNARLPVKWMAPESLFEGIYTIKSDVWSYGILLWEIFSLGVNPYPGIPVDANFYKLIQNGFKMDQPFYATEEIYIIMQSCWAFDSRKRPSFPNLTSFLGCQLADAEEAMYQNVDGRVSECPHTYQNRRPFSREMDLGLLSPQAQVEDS
Sequence of Dual specificity tyrosine-phosphorylation-regulated kinase 1B (Homo sapiens) (Q9Y463 whole entry, looked up): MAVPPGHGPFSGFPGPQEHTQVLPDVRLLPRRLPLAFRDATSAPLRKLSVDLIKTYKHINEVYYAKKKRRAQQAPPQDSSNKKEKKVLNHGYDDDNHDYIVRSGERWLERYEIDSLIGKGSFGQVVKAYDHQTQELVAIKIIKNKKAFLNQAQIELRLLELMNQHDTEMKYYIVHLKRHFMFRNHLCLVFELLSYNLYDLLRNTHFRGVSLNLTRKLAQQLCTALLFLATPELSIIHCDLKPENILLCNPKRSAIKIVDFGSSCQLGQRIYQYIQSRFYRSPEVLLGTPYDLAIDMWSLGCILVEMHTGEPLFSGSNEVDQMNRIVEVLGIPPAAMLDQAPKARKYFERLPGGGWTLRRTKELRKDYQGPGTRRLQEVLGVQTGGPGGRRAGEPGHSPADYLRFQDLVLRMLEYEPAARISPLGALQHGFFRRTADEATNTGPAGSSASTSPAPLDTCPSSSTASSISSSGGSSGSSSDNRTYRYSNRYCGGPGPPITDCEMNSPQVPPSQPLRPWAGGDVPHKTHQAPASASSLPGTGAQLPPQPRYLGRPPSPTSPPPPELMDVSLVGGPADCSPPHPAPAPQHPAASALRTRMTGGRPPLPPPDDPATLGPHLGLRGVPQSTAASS

`CC(C)CC(=O)Nc1cncc(-c2ccc3[nH]nc(C#Cc4ccc5cnccc5c4)c3c2)c1` came in with an IC50 in [1] of over 100 nM.

Consider `C(#Cc1n[nH]c2ccc(-c3cncc(OCC4CCCN4)c3)cc12)c1ccsc1` (stereo not given), for which the IC50 in test [2] was 10 nM; in [1], over 100 nM.

With `CC(C)CC(=O)Nc1cncc(-c2ccc3[nH]nc(C#Cc4ccc(C=O)cc4)c3c2)c1`, the values for the IC50 in test [2] and in [1] were 10.2 nM and over 100 nM, respectively.

Take `CC(C)C[C@H](N)COc1cncc(-c2ccc3[nH]nc(C#Cc4cccc(F)c4)c3c2)c1`: the IC50 in [1] was over 100 nM.

`CC(C)CC(=O)Nc1cncc(-c2ccc3[nH]nc(C#CC4CC4)c3c2)c1` yielded an IC50 in [1] of over 100 nM.

In turn, `CC(C)CC(=O)Nc1cncc(-c2ccc3[nH]nc(C#Cc4cccnc4)c3c2)c1` showed an IC50 in test [1] of 15.6 nM.

`CC(C)C[C@H](N)COc1cncc(-c2ccc3[nH]nc(C#CC4CC4)c3c2)c1` returned an IC50 in test [1] of over 100 nM.

In the case of `CC(C)C[C@H](N)COc1cncc(-c2ccc3[nH]nc(C#Cc4ccsc4)c3c2)c1`, the IC50 in test [1] is over 100 nM; in [3], 21.7 nM; in [4], 21 nM; in test [5] it was 3.2 nM. Further, the inhibition result in [6] is “Dose-Dependent Effect”; in [7], 97.2%; in test [8], 94.4%; in test [9] it was 93.2%; in test [10], 94.7%; in [11], 93.1%. The inhibition amounted to 92.4% in [12], 94.1% in [13] and 96% in test [14].

The molecule `CC(C)CC(=O)Nc1cncc(-c2ccc3[nH]nc(C#Cc4ccc5ccccc5n4)c3c2)c1` displayed an IC50 in [1] of over 100 nM.

Molecule `CC(C)CC(=O)Nc1cncc(-c2ccc3[nH]nc(C#Cc4ncccn4)c3c2)c1` gave an IC50 in test [1] of over 100 nM.

`Cc1[nH]nc2ccc(-c3cncc(OC[C@@H](N)CC(C)C)c3)cc12`: the results for the 50% inhibitory concentration (IC50) in test [2], in test [1] and in [3] were 12.3 nM, over 100 nM and 37.2 nM, respectively.

In turn, `CC(C)CC(=O)Nc1cncc(-c2ccc3[nH]nc(C#Cc4ccccc4Cl)c3c2)c1` displayed an IC50 in [1] of over 100 nM.

In [1], `CC(C)CC(=O)Nc1cncc(-c2ccc3[nH]nc(C#Cc4cccc(C(=O)O)c4)c3c2)c1` displayed an IC50 of over 100 nM.

The molecule `CC(C)CC(=O)Nc1cncc(-c2ccc3[nH]nc(C#Cc4ccncc4)c3c2)c1` gave an IC50 in [1] of over 100 nM.
